Source: US20220249599A1, “TREATMENT OF IMPLANTS WITH ENGINEERED ANTIMICROBIAL AMPHIPHILIC PEPTIDES” (priority 2018, published 2022)
Values joined by “and” are separate entries in the source; they are usually repeats but may differ in a detail not shown here. Equal values may be shown once. Read-outs that look alike come from different tables or passages of the source. Marks after values point to notes of the source that are not given here. Ends that are not written are not given here.

Key:
[1] = monkey
Experimental: Animals will be obtained from the Test Facility's colony of adult male cynomolgous monkeys (Macaca fascicularis) of Chinese origin. Animals will be weighed prior to dosing.
Intravenous administration will be via 30 minute infusion into a temporary percutaneous catheter placed into a saphenous vein. Prior to and following dose administration, the catheter will be flushed with 0.5 mL saline prior to removal. All dosing syringes will be weighed prior to and following dosing.
Serial blood samples will be collected via femoral vein (cephalic or saphenous, as necessary). Approximately 1 mL blood samples will be collected into K2EDTA tubes.
Blood samples will be collected into K2EDTA tubes and stored on wet ice. Whole blood will be processed to plasma by centrifugation (2400-2700 rpm at 5° C.) within 30 minutes of collection. Plasma samples will be split into 2 equal aliquots and stored at −80° C. until analysis.
Prior to extraction, a known concentration of a mass-adjusted internal standard (IS) will be added to assess recovery and allow for quantitation. Purified samples will be further subjected to high-performance liquid chromatography (HPLC) using C18 300 or 130 angstrom columns prior to MS/MS analysis. Multiple charge states will be observed by MS, so MS/MS will be employed to enable multiple reaction monitoring (MRM) analyses to determine the most MRM transitions with the highest signal-to-noise gain. Compound plasma concentrations will be determined by comparing to and compensating with co-purified IS peak intensity and validated calibrated standard curves.
Toxicokinetic parameters will be calculated using non-compartmental methods as implemented in the Phoenix® WinNonlin® ver. 6.3 comprehensive TK/PK analysis software program (Pharsight Corporation; Mountain View, Calif.) using an IV infusion model. Toxicokinetic analysis will be conducted using a 30-minute intravenous infusion time. Therefore, 30 minutes will be added to each sample time point postdose to obtain nominal time for TK analysis. Nominal times and dosage levels will be used for all calculations. Values below the lower limit of quantitation (BLQ) will be assigned a value of zero for the toxicokinetic calculations. Microsoft® Excel® 2013 will be used for receipt of bioanalytical data, minor formatting, including setting BLQ values to “0”, transfer into WinNonlin® for TK analysis, and calculation of the mean when an approximated value will be excluded. All plasma concentration data from all animals will be included in the analysis.

[2] = system: Acinetobacter baumannii ATCC BAA-1797 (MDR); assay: microbe, parasite or virus in culture; type: cell-based; settings: ATCC BAA-1797
In short: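 Broth microdilution MIC per CLSI in Mueller Hinton II broth containing 0.002% polysorbate 80, with 2-fold serial peptide dilutions from a top final concentration of 32 mcg/mL. Plates were incubated at 35° C. for 16 to 20 hrs; MIC was the lowest peptide concentration inhibiting visible growth.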

[3] = system: Staphylococcus aureus (n = 104); assay: microbe, parasite or virus in culture; type: cell-based
Experimental: The clinical isolates were obtained from USA hospitals. […] Plates were incubated at 35° C. overnight.

[4] = IV infusion 1 mg/kg, individual animals
[5] = IV infusion 3 mg/kg, individual animals
[6] = IV infusion 10 mg/kg, individual animals
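Wherever AUC0-24hr is given: adult male cynomolgus monkeys given a 30-min IV infusion, plasma drug levels quantified by LC-MS/MS against internal standard, parameters from non-compartmental IV infusion model analysis.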
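Wherever AUCinf Extrapolated is given: adult male cynomolgus monkeys given a 30-min IV infusion, plasma drug levels quantified by LC-MS/MS against internal standard, parameters from non-compartmental IV infusion model analysis.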
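Wherever AUCinf is given: adult male cynomolgus monkeys given a 30-min IV infusion, plasma drug levels quantified by LC-MS/MS against internal standard, parameters from non-compartmental IV infusion model analysis.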
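Wherever AUClast is given: adult male cynomolgus monkeys given a 30-min IV infusion, plasma drug levels quantified by LC-MS/MS against internal standard, parameters from non-compartmental IV infusion model analysis.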

RRWVRRVRRVWRRVVRVVRRWVRR-NH2 (C-terminus assumed) [SEQ ID NO: 1]
AUC0-24hr ([1]; IV infusion 1 mg/kg, Mean): 1090 ng·h/mL
AUCinf ([1]; IV infusion 1 mg/kg, Mean): 1170 ng·h/mL
AUCinf Extrapolated ([1]; IV infusion 1 mg/kg, Mean): 10.0%
AUClast ([1]; IV infusion 1 mg/kg, Mean): 983 ng·h/mL
Cmax ([1]; IV infusion 1 mg/kg, Mean): 1710 ng/mL
Dose Normalized AUClast ([1]; IV infusion 1 mg/kg, Mean): 983
Dose Normalized Cmax ([1]; IV infusion 1 mg/kg, Mean): 1710
T1/2 ([1]; IV infusion 1 mg/kg, Mean): 2 h
Vss ([1]; IV infusion 1 mg/kg, Mean): 1380 mL/kg
AUC0-24hr [1, 4]: 821 ng·h/mL and 1820 ng·h/mL and 616 ng·h/mL
AUCinf [1, 4]: 938* hr*ng/mL and 1730 hr*ng/mL and 610 hr*ng/mL
AUClast [1, 4]: 740 ng·h/mL and 1610 ng·h/mL and 595 ng·h/mL
CL [1, 4]: 1070* mL/hr/kg and 579 mL/hr/kg and 1640 mL/hr/kg
Cmax [1, 4]: 1460 ng/mL and 2660 ng/mL and 997 ng/mL
Dose Normalized AUClast [1, 4]: 740 and 1610 and 595
Dose Normalized Cmax [1, 4]: 1460 and 2660 and 997
Tmax [1, 4]: 2 min
Vss [1, 4]: 1530* mL/kg and 1260 mL/kg and 1510 mL/kg
AUC0-24hr ([1]; IV infusion 3 mg/kg, Mean): 7580 ng·h/mL
AUCinf ([1]; IV infusion 3 mg/kg, Mean): 7710 ng·h/mL
AUCinf Extrapolated ([1]; IV infusion 3 mg/kg, Mean): 1.5%
AUClast ([1]; IV infusion 3 mg/kg, Mean): 7580 ng·h/mL
Cmax ([1]; IV infusion 3 mg/kg, Mean): 10300 ng/mL
Dose Normalized AUClast ([1]; IV infusion 3 mg/kg, Mean): 2530
Dose Normalized Cmax ([1]; IV infusion 3 mg/kg, Mean): 3450
T1/2 ([1]; IV infusion 3 mg/kg, Mean): 5.2 h
Vss ([1]; IV infusion 3 mg/kg, Mean): 1290 mL/kg
AUC0-24hr [1, 5]: 6650 ng·h/mL and 11000 ng·h/mL and 5120 ng·h/mL
AUCinf [1, 5]: 6730 ng·h/mL and 11200 ng·h/mL and 5180 ng·h/mL
AUCinf Extrapolated [1, 5]: 1.2% and 2.3% and 1.1%
AUClast [1, 5]: 6650 ng·h/mL and 11000 ng·h/mL and 5120 ng·h/mL
CL [1, 5]: 446 mL/h/kg and 267 mL/h/kg and 580 mL/h/kg
Cmax [1, 5]: 6830 ng/mL and 15500 ng/mL and 8690 ng/mL
Dose Normalized AUClast [1, 5]: 2220 and 3660 and 1710
Dose Normalized Cmax [1, 5]: 2280 and 5170 and 2900
T1/2 [1, 5]: 4.4 h and 6.3 h and 5 h
Tmax [1, 5]: 2 min and 1.5 min
Vss [1, 5]: 1580 mL/kg and 905 mL/kg and 1370 mL/kg
AUC0-24hr ([1]; IV infusion 10 mg/kg, Mean): 50300 ng·h/mL
AUCinf ([1]; IV infusion 10 mg/kg, Mean): 50800 ng·h/mL
AUCinf Extrapolated ([1]; IV infusion 10 mg/kg, Mean): 1.3%
AUClast ([1]; IV infusion 10 mg/kg, Mean): 50300 ng·h/mL
Cmax ([1]; IV infusion 10 mg/kg, Mean): 38200 ng/mL
Dose Normalized AUClast ([1]; IV infusion 10 mg/kg, Mean): 5030
Dose Normalized Cmax ([1]; IV infusion 10 mg/kg, Mean): 3820
T1/2 ([1]; IV infusion 10 mg/kg, Mean): 4.6 h
Vss ([1]; IV infusion 10 mg/kg, Mean): 1260 mL/kg
AUCinf Extrapolated [1, 6]: 1.0% and 1.8% and 0.99%
Cmax [1, 6]: 26000 ng/mL and 24300 ng/mL and 64300 ng/mL
Dose Normalized Cmax [1, 6]: 2600 and 2430 and 6430
T1/2 [1, 6]: 4.3 h and 4.9 h and 4.6 h
Tmax [1, 6]: 2 min
MIC [2]: 4 µg/mL
MIC range ([3]; S. aureus MRSA isolates, n 104): 1 to 16 µg/mL
MIC range ([3]; Staphylococcus aureus (n = 104), all methicillin-resistant): 1 to 16 µg/mL
MIC50 ([3]; n = 104): 4 µg/mL
Mode (MIC) ([3]; n = 104): 4 µg/mL
